“And” between values parts separate entries of the source, which are not always exact repeats. Identical values can stand only once.

The test system of one test is C. albicans. Description: Minimum Biofilm Inhibitory Concentration (MBIC) test. Format: cell-based, Candida albicans. The conditions noted are these: for MBIC: adhered cells, 24 hours incubation; for MBIC Assuming 2 mL lock volume: amount in 2 mL lock volume. The protocol:
To further evaluate the efficacy of local anesthetics in antimicrobial lock solutions of the present invention, the minimum concentration at which these drugs can inhibit biofilm growth was tested. The local anesthetics identified in Table 4 were tested against three different species of bacteria identified in Table 3 to assess the antimicrobial efficacy against adhered microbes. It is known that adhered microbes, or biofilms, can be more resistant to antimicrobials than planktonic cells.
Experiments were conducted against adhered microbes as follows: first, a test tube containing 10 mL of sterile TSB was inocubated with BD BBL™ Qualiswab™, with the strain of interest. The tube was placed in an incubator at 37° C. overnight. The next day, a flask containing 25 mL of sterile TSB (or Sabouraud Dextrose Broth (SDB) for fungal species) was inoculated with 1 mL of bacterial suspension. The flask was placed in an incubator at 37° C. and shaken at 150 RPM. The next day a new flask containing 25 mL of TSB (or SDB) media was inoculated with 1 mL from the previous culture. The bacterial or fungal species were allowed to grow to log phase.
After the microbes entered the log phase, their concentration was checked to ensure that they had reached a minimum of 1×10^8 CFU/mL per a 0.5 MacFarland standard. Microbes were diluted to a concentration of 1×10^5 CFU/mL using a nephelometer and 200 μL of the microbial suspensions were plated on each of the wells of a 96 well plate. The plate was incubated in a standard incubator at 37° C. for 2 hours to allow for microbial cell adhesion. Next, dilutions of the desired concentrations of antimicrobials were prepared. In a separate, blank plate, 1:2 serial dilutions were prepared with the highest concentration of the antimicrobial to the left of the plate, decreasing in concentration towards the right of the plate. For example, 170 μL of the highest concentration of an antimicrobial was dispensed in column 1 (left of plate). Each of the rest of the columns received 170 μL of saline. Column 2 received 170 μL of antimicrobial, making for a 1:2 dilution (or 50% of original concentration). Contents of Column 2 were then transferred to 3, then from 3 to 4, and so forth. Each well was supplemented with 20% media (TSB for S. epidermidis and P. aeruginosa and SDB for C. albicans), thereby ensuring the viability of the cells over the test time period (24 hours). Positive control wells had 20% media in saline. The bacterial plate was removed from the incubator, and bacterial suspension discarded (adhered cells remain on plate). The antimicrobial formulations identified in Table 4 were then added to the bacterial plate and incubated in a standard incubator at 37° C. for 24 hours. After this time period, solutions in the plate were discarded and plates were rinsed with 200 μL of saline. The cells were then fixed with 200 μL of 95% ethanol for 30 minutes, and allowed to air dry for 10 minutes. Next, the cells were stained for 20 minutes with 250 μL of a filtered solution of 2% crystal violet dye. The plates were then rinsed three times with water, and the 2% crystal violet dye was solubilized with 300 μL of 95% ethanol. The plates were allowed to stand for 10 minutes to complete solubilization and then the plates were read on a spectrophotometer at 570 nm absorbance, wherein high absorbance readings of >0.600 indicated microbial growth. Columns in the plate that had no growth were recorded as the […] (MBIC). FIG. 2 illustrates the MBIC corresponding to the specific local anesthetics.

For a further test, the system named is sheep plasma. The experiment in a line: Sheep's Plasma Clotting Assay (USP coagulation test). The conditions noted are these: for Equivalence to Heparin: calculated from volumes giving 50% clotting versus heparin standard. In kind it is biochemical. As for the experimental part:
In order to understand what the working concentration range could be for the anesthetics tested, a Sheep's Plasma Clotting Assay was performed. This test is based on the United States Pharmacopeia (USP) standard test for coagulation and is often used to understand heparin potency. […] Sheep plasma was thawed in a water bath set to 37° C. To facilitate thawing, the plasma in the bottle was inverted every 15 minutes. The plasma was thawed after about 45-60 minutes. The thawed sheep plasma was filtered through glass wool or filtered into a clean glass beaker or flask, to remove particulate matter and to activate it. About 70-80 mL of filtered sheep plasma was collected. Next, a set of test tubes were prepared (VWR Disposable 13×100-mm) in a 6×12 rack. Ten test tubes were needed for each test solution including ten test tubes for the heparin standard. […] For each test solution, every (10) test tube received different volumes of 0.9% NaCl. […] Next, the local anesthetics were added, namely, tetracaine at 30 mg/mL, dibucaine at 30 mg/mL, and bupivacaine at 38 mg/mL. Each of the ten test tubes received different volumes of test solutions, starting with 280 μL and increasing in volume by 20 μL until reaching a volume of 460 μL at the tenth tube. The total volume of saline and test solutions in each of the tubes was 800 μL. A standard solution, namely, USP heparin sodium standard, was also prepared in the same way, with the starting concentration of heparin being 5.6 U/mL. Next, 1 mL of sheep plasma for heparin assay (Bio-Supplies, Inc, P-SPR-1500) was pipetted into each tube, and the rack was gently shaken to ensure mixing. Two hundred μL of a 1% CaCl2 solution was placed into each tube. The total volume for each tube is 2 mL. Each tube was capped with a VWR Plug-type cap, and contents of each tube were inverted six times to ensure that the entire inner wall of each tube was wet. Tubes were incubated for 1 hour at room temperature. After the 1 hour time period, the extent of clotting in each tube was determined by gently shaking each individual test tube (tapping the end gently is acceptable) and then tilting the tube to observe a clot both vertically and horizontally. The degree to which each tube developed a clot was recorded using the following criteria (per the USP Standard) for the visual inspection of the tubes: • 0% Clotting=No apparent clot formed. • 25% Clotting=Small observable clot with mostly liquid. Clot is very mobile. • 50% Clotting=Plasma is completely clotted but mobile. • 75% Clotting=Clot is not mobile but liquid is still present. • 100% Clotting=Clot is not mobile and no liquid is present.
Because of the testing protocol, starting concentrations of anesthetics were diluted from the original formulation. Calculations can be made to compare the efficacy of these anesthetics to the standard anticoagulant heparin by calculating the point at which both standard and test samples yield 50% clotting. Using this calculation, the anesthetic concentration can be referenced back to a measure of U/mL of heparin equivalence.

For the compound `CCCCNc1ccc(C(=O)OCCN(C)C)cc1.Cl` [Tetracaine, Tetracaine HCl], in the test with C. albicans, the MBIC was 0.24 mg/mL and the “MBIC Assuming 2 mL lock volume” value is reported as 0.48 mg. Further, the “volume at 50% coagulation” value in the test with sheep plasma (Rep 1) came to 350 µL. For the same compound, the “Equivalence to Heparin” value in the test on sheep plasma (per replicate, HCl) is 6.06 U/mL and 6.24 U/mL (2×). In the test on sheep plasma (per replicate, listed as tetracaine, HCl), the “Equivalence to Heparin” value is recorded as 6.25 U/mL. The 50% clotting range in the test on sheep plasma (final concentration in tube, 1 hour at room temperature, per replicate, HCl) was 5.4 mg/mL (2×) and 5.1-5.4 mg/mL.

On to `CCCCN1CCCCC1C(=O)Nc1c(C)cccc1C.Cl` (stereo not drawn) [Bupivacaine, Bupivacaine HCl], for which, in the test with C. albicans, the MBIC entry is “No inhibition” and the “MBIC Assuming 2 mL lock volume” value is on record as “No inhibition”. In the test on sheep plasma (at all concentrations tested), this compound came in with a coagulation of 75%.

(Values after patent publication US10350334B2, “Catheter locking solution having antimicrobial and anticoagulation properties” (Becton, Dickinson and Company, priority 2009, dated 2019).)
